The source of these data is PubChem BioAssay AID270 (DTP/NCI, 2004).

“And” between values parts separate entries of the source, which are not always exact repeats. Equal values may be shown once. Records with an inconclusive call do not appear. Where a SMILES comes first, the peptide text is derived from it. [ ]: non-standard residue; d: D form. The star is where a group is joined. ξ: configuration not given here. ξAsp(βξ-Me) = CC(C(=O)O)C(N)C(=O)O; X4 = CC(N*)C1NC(=O)C2CCCCN2C1=O; ξAbu(3ξ-NH2) = CC(N)C(N)C(=O)O; X3 = CCC(C)CCC/C=C/CC(=O)*

This test concerns BDF1 mice, s.c. Lewis lung carcinoma, T/C %. Nature of the test: NCI In Vivo Anticancer Drug Screen. Data for tumor model Lewis Lung Carcinoma (subcutaneous) in B6D2F1 (BDF1) mice. Summed up: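 Readout: survival or tumor size, expressed as treated (T) over vehicle control (C). Transplantable tumor implanted in mice; compound given to the treated group.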
Where [1] appears, read: endpoint: median survival time, dose: 12.5 mg/kg/injection, schedule: Q01DX009 (ip), vehicle: Klucel (hydroxypropylcellulose) (HPC), higher = longer survival.
The mark [2] stands for this setting: endpoint: median survival time, dose: 25.0 mg/kg/injection, schedule: Q01DX009 (ip), vehicle: Klucel (hydroxypropylcellulose) (HPC), higher = longer survival.
Setting [3] is: endpoint: median survival time, dose: 50.0 mg/kg/injection, schedule: Q01DX009 (ip), vehicle: Klucel (hydroxypropylcellulose) (HPC), higher = longer survival.
Setting [4] is: endpoint: median survival time, dose: 100.0 mg/kg/injection, schedule: Q01DX009 (ip), vehicle: Klucel (hydroxypropylcellulose) (HPC), higher = longer survival.
Setting [5] is: endpoint: mean tumor weight, dose: 50.0 mg/kg/injection, schedule: Q01DX011 (ip), vehicle: carboxymethylcellulose (CMC), higher = larger tumour.
Setting [6] is: endpoint: mean tumor weight, dose: 50.0 mg/kg/injection, schedule: Q01DX011 (ip), vehicle: saline, higher = larger tumour.
Setting [7] is: endpoint: mean tumor weight, dose: 100.0 mg/kg/injection, schedule: Q01DX011 (ip), vehicle: saline, higher = larger tumour.
The mark [8] stands for this setting: endpoint: mean tumor weight, dose: 200.0 mg/kg/injection, schedule: Q01DX011 (ip), vehicle: saline, higher = larger tumour.
The mark [9] stands for this setting: endpoint: mean tumor weight, dose: 400.0 mg/kg/injection, schedule: Q01DX011 (ip), vehicle: saline, higher = larger tumour.

With `Nc1nc(N)nc(N)n1`, the T/C runs as follows: (endpoint: median survival time, dose: 100.0 mg/kg/injection, schedule: Q01DX009 (ip), vehicle: saline with Tween-80, higher = longer survival) 103 % of control; (endpoint: median survival time, dose: 200.0 mg/kg/injection, schedule: Q01DX009 (ip), vehicle: saline with Tween-80, higher = longer survival) 95 % of control; (endpoint: median survival time, dose: 400.0 mg/kg/injection, schedule: Q01DX009 (ip), vehicle: saline with Tween-80, higher = longer survival) 98 % of control.
With `O=NN(CCCl)C(=O)NC(CCC(=O)O)C(=O)O` (stereo not drawn), the T/C runs as follows: (endpoint: median survival time, dose: 81.0 mg/kg/injection, schedule: Q01DX001 (ip), vehicle: saline with Tween-80, higher = longer survival) 99 % of control; (endpoint: median survival time, dose: 122.0 mg/kg/injection, schedule: Q01DX001 (ip), vehicle: saline with Tween-80, higher = longer survival) 95 % of control; (endpoint: median survival time, dose: 183.0 mg/kg/injection, schedule: Q01DX001 (ip), vehicle: saline with Tween-80, higher = longer survival) 157 % of control; (endpoint: median survival time, dose: 184.0 mg/kg/injection, schedule: Q01DX001 (ip), vehicle: saline with Tween-80, higher = longer survival) 117 % of control; (endpoint: median survival time, dose: 275.0 mg/kg/injection, schedule: Q01DX001 (ip), vehicle: saline with Tween-80, higher = longer survival) 107 % of control.
For `COC(C(=O)C(O)C(C)O)C1Cc2cc3cc(OC4CC(OC(C)=O)C(OC5CC(O)C(OC)C(C)O5)C(C)O4)cc(O)c3c(O)c2C(=O)C1OC1CC(OC2CC(OC3CC(C)(O)C(OC(=O)C(C)C)C(C)O3)C(O)C(C)O2)C(O)C(C)O1` (stereo not drawn), the T/C is, setting by setting: (endpoint: median survival time, dose: 0.5 mg/kg/injection, schedule: Q01DX009 (ip), vehicle: saline with Tween-80, higher = longer survival) 97 % of control; (endpoint: median survival time, dose: 2.0 mg/kg/injection, schedule: Q01DX009 (ip), vehicle: saline with Tween-80, higher = longer survival) 94 % of control.
With `CC1C[N-]CC(C)C1.CC1C[N-]CC(C)C1.CC1C[N-]CC(C)C1.CC1C[N-]CC(C)C1.[Cl][Rh][Cl]` (stereo not drawn), the T/C (endpoint: median survival time, dose: 1.5 mg/kg/injection, schedule: Q01DX009 (ip), vehicle: saline, higher = longer survival) is 104 % of control; the T/C (endpoint: median survival time, dose: 3.0 mg/kg/injection, schedule: Q01DX009 (ip), vehicle: saline, higher = longer survival) is 114 % of control; the T/C (endpoint: median survival time, dose: 6.0 mg/kg/injection, schedule: Q01DX009 (ip), vehicle: saline, higher = longer survival) is 105 % of control.
For `CC1(c2ccc(N(CCCl)CCCl)cc2)NC(=O)NC1=O` (stereo not drawn), the T/C is 111 % of control under setting [1], 91 % of control under setting [2], 98 % of control under setting [3] and 115 % of control under setting [4].
In the case of `CCN(CC)C(=S)S.[Te]`, the T/C was 24 % of control and 36 % of control under setting [5]; 10 % of control (endpoint: mean tumor weight, dose: 200.0 mg/kg/injection, schedule: Q01DX011 (ip), vehicle: carboxymethylcellulose (CMC), higher = larger tumour).
`O=S(=O)(O)O`: the T/C by setting is: (endpoint: median survival time, dose: 6.25 mg/kg/injection, schedule: Q01DX009 (ip), vehicle: Klucel (hydroxypropylcellulose) (HPC), higher = longer survival) 94 % of control and 97 % of control and 121 % of control; under setting [1], 88 % of control and 91 % of control and 94 % of control; under setting [2], 94 % of control and 102 % of control and 107 % of control; under setting [3], 70 % of control and 94 % of control; under setting [4], 35 % of control and 42 % of control; (endpoint: median survival time, dose: 200.0 mg/kg/injection, schedule: Q01DX009 (ip), vehicle: Klucel (hydroxypropylcellulose) (HPC), higher = longer survival) 30 % of control and 32 % of control.
Take `CC1(C)[C@@H]2CC[C@]1(C)[C@H](O)C2`: the T/C under setting [6] is 100 % of control, the T/C under setting [7] was 95 % of control, the T/C under setting [8] is 79 % of control and the T/C under setting [9] is 100 % of control.
`CCC(C)CCC/C=C/CC(=O)NC(CC(=O)O)C(=O)NC(C(=O)NC(CC(=O)O)C(=O)NCC(=O)NC(CC(=O)O)C(=O)NCC(=O)NC(C(=O)NC(C(=O)N1CCCC1C(=O)NC(C)C1NC(=O)C2CCCCN2C1=O)C(C)C)C(C)N)C(C)C(=O)O` (stereo not drawn) (X3-D[ξAsp(βξ-Me)]DGDG[ξAbu(3ξ-NH2)]VP-X4; configuration not given here): the T/C is, setting by setting: (endpoint: median survival time, dose: 100.0 mg/kg/injection, schedule: Q01DX009 (ip), vehicle: saline + alcohol, higher = longer survival) 124 % of control; (endpoint: median survival time, dose: 200.0 mg/kg/injection, schedule: Q01DX009 (ip), vehicle: saline + alcohol, higher = longer survival) 99 % of control.
Take `C=CCCCCCCCCC(=O)O`: the T/C reads like this: under setting [6], 92 % of control; under setting [7], 91 % of control; under setting [8], 56 % of control; under setting [9], 84 % of control.
With `CC[n+]1ccc(Nc2ccc(NC(=O)c3ccc(Nc4cc[n+](CC)c5ccc(N)cc45)cc3)cc2)cc1`, the T/C runs as follows: (endpoint: mean tumor weight, dose: 0.5 mg/kg/injection, schedule: Q01DX011 (ip), vehicle: saline, higher = larger tumour) 86 % of control; (endpoint: mean tumor weight, dose: 1.0 mg/kg/injection, schedule: Q01DX011 (ip), vehicle: saline, higher = larger tumour) 107 % of control; (endpoint: mean tumor weight, dose: 2.0 mg/kg/injection, schedule: Q01DX011 (ip), vehicle: saline, higher = larger tumour) 73 % of control; (endpoint: mean tumor weight, dose: 4.0 mg/kg/injection, schedule: Q01DX011 (ip), vehicle: saline, higher = larger tumour) 33 % of control.
`CCC(C)n1ncc2c(N(C)C)ncnc21` (stereo not drawn): for the setting “endpoint: mean tumor weight, dose: 32.5 mg/kg/injection, schedule: Q01DX011 (ip), vehicle: carboxymethylcellulose (CMC), higher = larger tumour”, the T/C was 76 % of control.
On to `O=C(O)C(O)C(O)C1[O][Sb][O]C1CO` (stereo not drawn), for which the T/C (endpoint: median survival time, dose: 50.0 mg/kg/injection, schedule: Q01DX009 (ip), vehicle: saline, higher = longer survival) is 104 % of control and the T/C (endpoint: median survival time, dose: 100.0 mg/kg/injection, schedule: Q01DX009 (ip), vehicle: saline, higher = longer survival) is 102 % of control.
Turning to `COc1cc(C[C@H]2c3cc(OC)c(OC)cc3CCN2C)c(Oc2cc3c(cc2OC)-c2c(OC)c(OC)cc4c2[C@H](C3)N(C)CC4)cc1OC`, the T/C runs as follows: under setting [5], 49 % of control; (endpoint: mean tumor weight, dose: 100.0 mg/kg/injection, schedule: Q01DX011 (ip), vehicle: carboxymethylcellulose (CMC), higher = larger tumour) 26 % of control.
On to `CC(CCc1cccc2ccccc12)(C(=O)O)C(=O)O`, for which the T/C (endpoint: mean tumor weight, dose: 50.0 mg/kg/injection, schedule: Q01DX011 (ip), vehicle: acid diluted with saline, higher = larger tumour) is 72 % of control; the T/C (endpoint: mean tumor weight, dose: 63.0 mg/kg/injection, schedule: Q01DX011 (ip), vehicle: carboxymethylcellulose (CMC), higher = larger tumour) was 101 % of control; the T/C (endpoint: mean tumor weight, dose: 100.0 mg/kg/injection, schedule: Q01DX011 (ip), vehicle: acid diluted with saline, higher = larger tumour) is 85 % of control; the T/C (endpoint: mean tumor weight, dose: 200.0 mg/kg/injection, schedule: Q01DX011 (ip), vehicle: acid diluted with saline, higher = larger tumour) was 91 % of control; the T/C (endpoint: mean tumor weight, dose: 400.0 mg/kg/injection, schedule: Q01DX011 (ip), vehicle: acid diluted with saline, higher = larger tumour) was 59 % of control.
Regarding `CC(=O)CC(C)(C)N`, the T/C was 118 % of control (endpoint: mean tumor weight, dose: 15.0 mg/kg/injection, schedule: Q01DX011 (ip), vehicle: saline, higher = larger tumour); 101 % of control (endpoint: mean tumor weight, dose: 33.0 mg/kg/injection, schedule: Q01DX011 (ip), vehicle: saline, higher = larger tumour); 50 % of control (endpoint: mean tumor weight, dose: 50.0 mg/kg/injection, schedule: Q01DX011 (ip), vehicle: methylcellulose (MC), higher = larger tumour); 120 % of control under setting [6]; 91 % of control (endpoint: mean tumor weight, dose: 75.0 mg/kg/injection, schedule: Q01DX011 (ip), vehicle: methylcellulose (MC), higher = larger tumour); 30 % of control (endpoint: mean tumor weight, dose: 100.0 mg/kg/injection, schedule: Q01DX011 (ip), vehicle: methylcellulose (MC), higher = larger tumour).
For the compound `COc1cc2c(cc1OC)-c1ccc3cc4c(cc3c1N(C)C2)OCO4`, the T/C by setting is: (endpoint: median survival time, dose: 5.0 mg/kg/injection, schedule: Q01DX009 (ip), vehicle: water, higher = longer survival) 89 % of control; (endpoint: median survival time, dose: 20.0 mg/kg/injection, schedule: Q01DX009 (ip), vehicle: water, higher = longer survival) 105 % of control; (endpoint: median survival time, dose: 40.0 mg/kg/injection, schedule: Q01DX009 (ip), vehicle: water, higher = longer survival) 89 % of control; (endpoint: median survival time, dose: 80.0 mg/kg/injection, schedule: Q01DX009 (ip), vehicle: water, higher = longer survival) 98 % of control.
As for `CCOc1ccc(Nc2ncnc3nc[nH]c23)cc1CN(CCCl)CCCl`, the T/C is 54 % of control (endpoint: mean tumor weight, dose: 1.2 mg/kg/injection, schedule: Q01DX011 (ip), vehicle: other, higher = larger tumour) and 46 % of control (endpoint: mean tumor weight, dose: 2.3 mg/kg/injection, schedule: Q01DX011 (ip), vehicle: other, higher = larger tumour).
Regarding `Cc1c2ccncc2c(C)c2c1[nH]c1ccccc12`, the T/C runs as follows: (endpoint: median survival time, dose: 37.5 mg/kg/injection, schedule: Q04DX003 (ip), vehicle: saline with Tween-80, higher = longer survival) 120 % of control; (endpoint: median survival time, dose: 75.0 mg/kg/injection, schedule: Q04DX003 (ip), vehicle: saline with Tween-80, higher = longer survival) 87 % of control.
